One compound from patent publication US8158811B2, “Unsaturated fatty hydroxy acid derivatives and the dermocosmetologic use thereof” (Pierre Fabre Dermo-Cosmetique, priority 2005, dated 2012) can be followed below.

Test [1] has as its system membrane lipids, fibroblast line L929. The test can be described thus: TBARS test, lipid peroxidation after H2O2/Fe2+/Fe3+. The conditions noted are these: 400 μg/ml. The test is classed as cell-based, murin.
The test system of test [2] is intracellular AOSs, fibroblast line L929. Description: in vitro assay of intracellular AOSs (H2DCF-DA probe) after H2O2/iron oxidative stress. Particulars: 400 μg/ml, pre-incubation 3 h, L929, 18 tests. Type of test: cell-based, murin. The source says: We set up an in vitro study model of oxidative stress induced by H2O2/iron as H2O2 generates huge amounts of intracellular AOSs as a result of a chain reaction triggered by oxidation of membrane lipids.
This technique is based on the use of a fluorescent probe, 6-carboxy-2′,7′-dichlorodihydro fluorescein diacetate, di (acetoxymethyl ester) (H2DCF-DA) which once it penetrates into the cell is deacetylated by intracellular esterases and thus forms H2DCF. This product is oxidized by intracellular AOSs into a highly fluorescent compound: 2′,7′-dichlorofluorescein (DCF) (Suematsu M et al., 1996, Free Radicals Practical Approach, Punchard ed. P 83-99).
The materials and methods used for in vitro assay of intracellular AOSs are given below. • a) Cell tool • Cutaneous murin fibroblast cell line L929. • b) Materials • 96 well flat based microplate. • Cytofluor II cytofluorameter: Ref. PERCEPTIVE BIOSYSTEMS. • c) Reagents • Cell culture reagents: • Dulbecco's Modified Eagle Medium as the culture medium (DMEM) • Foetal calf serum • Phosphate buffer PBS pH 7.4 • Trypsin EDTA (1X) Fluorescent probe • 6-carboxy-2′,7′-dichlorodihydrofluorescein diacetate, di(acetoxymethyl ester) (PM.675,43) Cell stimulation products • Hydrogen peroxide (H2O2) 3% Ref. GIFRER (Gifrer Barbezat Laboratory) • Ferrous ammonium sulphate (Fe^2+) • Ferric ammonium sulphate (Fe^3+) • d) Products tested:
For the evaluation of unsaturated fatty hydroxy acid derivatives, the dilutions are prepared in freshly prepared culture medium for a concentration range of 0.02, 0.2, 2 and 20 ng/ml. • e) Protocol. Cell culturing.
Cells from the fibroblast line L929 were cultured in 96-well flat base microplates in 100 μl of DMEM supplemented with 10% foetal calf serum. These were incubated overnight at 37° C. in a humid atmosphere at 5% CO2. The blank plate without cells was evaluated using 6 wells.
Dilutions of the products to be tested and reference molecule were made up in culture medium without foetal calf serum then deposited in 7 wells at a rate of 100 μl per well.
Cells were then incubated for 3 hours at 37° C. in a humid atmosphere at 5% CO2.
Cells were rinsed in PBS 1X at a rate of 100 μl per well. They were then incubated for 30 minutes at 37° C. in a humid atmosphere at 5% CO2 with 50 μl of the H2DCF-DA probe at 5 μM.
After 30 minutes of contact with the probe alone, cells were incubated for 30 minutes at 37° C. in a humid atmosphere at 5% CO2 with the addition of 25 μl of H2O2 at 800 μM and 25 μl of ferrous iron and ferric iron solution at 8 mM in order to obtain final concentrations of 200 μM of H2O2 and 2 mM of ferrous iron and ferric iron.
Cells were then rinsed with PBS 1X at a rate of 100 μl per well then incubated for 30 minutes at 37° C. in a humid atmosphere at 5% CO2 with 100 μl of PBS 1X.
This incubation for 1 h 30 minutes at 37° C. allows intracellular esterases to deacetylate the probe into H2DCF which can be oxidized by the intracellular AOSs into DCF: a fluorescent compound whose formation is proportional to the quantity of intracellular AOSs.
The intensity of fluorescence is read on a cytofluorimeter at λexcitation=485 nm and λemission=530 nm. This reflects the amount of intracellular AOS produced.
The ratio below makes it possible to calculate the % protection against the production of intracellular AOSs for each product concentration tested (because the intensity of fluorescence or IF reflects the release of intracellular AOSs)
• Pre-incubation: 3 h • Number of tests=3 for all compounds. • Number of tests=18 for vit. E

Molecules are shown by their SMILES.

As to `Cc1c(C)c2c(c(C)c1O)CC[C@@](C)(CCC[C@H](C)CCC[C@H](C)CCCC(C)C)O2` [Vit. E, alphatocopherol], the “% membrane lipid protection, Mean” value in test [1] is reported as 44.66%; in test [1] (listed as Vitamin E), “protects cell membranes very effectively”. The “Percentage inhibition of the intracellular production of AOS” value in test [2] is recorded as “Vit. E 400 μg/ml 47%”.
